Reference: ChEMBL document CHEMBL4351028, “Benzoyl indoles with metabolic stability as reversal agents for ABCG2-mediated multidrug resistance” (Eur J Med Chem, 2019)
Activity calls are given as the source filed them. The rule behind the calls is not given here.

Experiments:
[1] = Cytotoxicity against human NCI-H460 cells assessed as inhibition of cell viability at 5 to 25 uM incubated for 2 hrs by MTT assay relative to control; type: cell-based; conditions: read-out: INH
[2] = Cytotoxicity against HEK293 cells transfected with pcDNA3.1 assessed as inhibition of cell viability at 5 to 25 uM incubated for 2 by MTT assay relative to control; type: cell-based; conditions: human, read-out: INH
[3] = target: T1, Broad substrate specificity ATP-binding cassette transporter ABCG2 (Homo sapiens, UniProt Q9UNQ0); test: Reversal of ABCG2-mediated multidrug resistance in human S1-M1-80 cells assessed as potentiation of doxorubicin-induced cytotoxicity at 25 uM pretreated with compound for 2 hrs followed by doxorubicin challenge for 44 hrs by MTT assay; type: cell-based
T1 sequence (Q9UNQ0 whole entry): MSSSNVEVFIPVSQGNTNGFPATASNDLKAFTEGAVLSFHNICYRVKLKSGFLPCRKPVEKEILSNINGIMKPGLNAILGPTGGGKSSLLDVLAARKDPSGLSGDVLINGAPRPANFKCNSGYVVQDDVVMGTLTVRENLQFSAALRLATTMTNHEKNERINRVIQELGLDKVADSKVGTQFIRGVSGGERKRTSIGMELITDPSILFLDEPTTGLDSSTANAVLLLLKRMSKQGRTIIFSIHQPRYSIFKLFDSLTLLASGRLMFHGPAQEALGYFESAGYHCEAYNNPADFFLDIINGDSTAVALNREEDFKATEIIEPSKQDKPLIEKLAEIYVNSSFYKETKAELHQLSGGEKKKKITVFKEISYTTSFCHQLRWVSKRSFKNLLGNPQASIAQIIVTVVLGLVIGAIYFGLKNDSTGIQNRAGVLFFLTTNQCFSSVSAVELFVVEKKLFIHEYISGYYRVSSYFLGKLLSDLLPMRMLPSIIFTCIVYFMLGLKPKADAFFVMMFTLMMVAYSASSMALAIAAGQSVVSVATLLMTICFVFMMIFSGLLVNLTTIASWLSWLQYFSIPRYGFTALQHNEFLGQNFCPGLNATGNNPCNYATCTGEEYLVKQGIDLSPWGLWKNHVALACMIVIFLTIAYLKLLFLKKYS

[4] = Cytotoxicity against HEK293 cells harbouring ABCG2-482-G2 mutant assessed as inhibition of cell viability at 5 to 25 uM incubated for 2 hrs by MTT assay relative to control; type: ADME, cell-based; conditions: human, read-out: INH
[5] = target: T1, Broad substrate specificity ATP-binding cassette transporter ABCG2; test: Inhibition of ABCG2-mediated mitoxantrone efflux in human NCI-H460/MX20 cells assessed as increase in accumulation of [3H]MX at 25 uM incubated for 2 hrs followed by [3H]MX addition further incubated for 2 hrs by liquid scintillation counter relative to control; type: cell-based
[6] = target: T1, Broad substrate specificity ATP-binding cassette transporter ABCG2; test: Competitive substrate activity at ABCG2 (unknown origin) expressed in High Five insect cell vesicle membrane assessed as stimulation of ATPase activity by PREDEASY ATPase assay
Homo sapiens [7] = organism: Homo sapiens; test: Effect on ABCG2 expression in human NCI-H460/MX20 cells at 25 uM incubated up to 72 hrs by Western blot analysis; type: functional, cell-based
[8] = Cytotoxicity against human NCI-H460/MX20 cells assessed as concentration that causes inhibition of cell viability by <=20% incubated for 24 hrs by MTT assay; type: cell-based
HEK293 [9] = test: Reversal of ABCG2 482-T7 mutant (unknown origin) expressed in HEK293 cells-mediated multidrug resistance assessed as potentiation of mitoxantrone-induced cytotoxicity at 10 to 25 uM pretreated for 2 hrs followed by mitoxantrone challenge and measured after 44 hrs by MTT assay; type: cell-based; conditions: Homo sapiens
[10] = Cytotoxicity against human NCI-H460/MX20 cells assessed as inhibition of cell viability incubated for 2 hrs by MTT assay; type: cell-based; conditions: NCI-H460/MX20, 2 h
Homo sapiens [11] = organism: Homo sapiens; test: Effect on ABCG2 internalization in human NCI-H460/MX20 cells at 25 uM incubated for 72 hrs by immunofluorescence analysis; type: functional, cell-based
ABCG2 = target: T2, ABCG2 (Homo sapiens, UniProt Q9UNQ0); test: Competitive substrate activity at ABCG2 (unknown origin) expressed in High Five insect cell vesicle membrane assessed as stimulation of ATPase activity at 0.21 uM by PREDEASY ATPase assay relative to control; conditions: High Five insect cell vesicle membranes expressing ABCG2
T2 sequence (Q9UNQ0 whole entry): T1 sequence (Q9UNQ0 whole entry)

NCI-H460 [12] = test: Cytotoxicity against human NCI-H460 cells assessed as concentration that causes inhibition of cell viability by <=20% incubated for 24 hrs by MTT assay; type: cell-based; conditions: nci-h460, 24 h
[13] = target: T1, Broad substrate specificity ATP-binding cassette transporter ABCG2; test: Reversal of ABCG2-mediated multidrug resistance in human NCI-H460/MX20 cells assessed as potentiation of cisplatin-induced cytotoxicity at 25 uM pretreated for 2 hrs followed by cisplatin addition and measured after 44 hrs by MTT assay; type: cell-based
[14] = target: T1, Broad substrate specificity ATP-binding cassette transporter ABCG2; test: Inhibition of ABCG2-mediated mitoxantrone efflux in human NCI-H460/MX20 cells assessed as increase in accumulation of [3H]MX at 10 uM incubated for 2 hrs followed by [3H]MX addition and measured after 2 hrs by liquid scintillation counter; type: cell-based
[15] = Cytotoxicity against HEK293 cells expressing wild type ABCG2-482-R2 assessed as inhibition of cell viability at 5 to 25 uM incubated for 2 hrs by MTT assay relative to control; type: ADME, cell-based; conditions: human, read-out: INH
[16] = target: T1, Broad substrate specificity ATP-binding cassette transporter ABCG2; test: Reversal of ABCG2-mediated multidrug resistance in human S1-M1-80 cells assessed as potentiation of mitoxantrone-induced cytotoxicity at 25 uM pretreated with compound for 2 hrs followed by mitoxantrone challenge for 44 hrs by MTT assay; type: cell-based
[17] = Cytotoxicity against human NCI-H460/MX20 cells assessed as inhibition of cell viability at 5 to 25 uM incubated for 2 hrs by MTT assay relative to control; type: cell-based; conditions: read-out: INH
[18] = target: T1, Broad substrate specificity ATP-binding cassette transporter ABCG2; test: Reversal of ABCG2 (unknown origin) expressed in HEK293 cells-mediated multidrug resistance assessed as potentiation of mitoxantrone-induced cytotoxicity at 10 to 25 uM pretreated for 2 hrs followed by mitoxantrone addition and measured after 44 hrs by MTT assay; type: cell-based; conditions: hek293, 44 h
[19] = target: T1, Broad substrate specificity ATP-binding cassette transporter ABCG2; test: Reversal of ABCG2-mediated multidrug resistance in human NCI-H460/MX20 cells assessed as potentiation of mitoxantrone-induced cytotoxicity at 10 to 25 uM pretreated with compound for 2 hrs followed by mitoxantrone challenge for 44 hrs by MTT assay; type: cell-based
[20] = Metabolic stability in human liver microsomes assessed as compound remaining at 100 uM incubated for 1 hr by HPLC analysis; type: ADME, Microsome; conditions: read-out: Stability
[21] = Cytotoxicity against human S1-M1-80 cells assessed as inhibition of cell viability at 5 to 25 uM incubated for 2 hrs by MTT assay relative to control; type: cell-based; conditions: read-out: INH
[22] = Cytotoxicity against HEK293 cells harbouring ABCG2-482-T7 mutant assessed as inhibition of cell viability at 5 to 25 uM incubated for 2 hrs by MTT assay relative to control; type: ADME, cell-based; conditions: human, read-out: INH
[23] = target: T1, Broad substrate specificity ATP-binding cassette transporter ABCG2; test: Reversal of ABCG2-mediated multidrug resistance in human NCI-H460/MX20 cells assessed as potentiation of mitoxantrone-induced cytotoxicity by measuring inhibition of cell proliferation pretreated for 2 hrs followed by mitoxantrone addition and measured after 44 hrs by MTT assay; type: cell-based
HEK293 [24] = test: Reversal of ABCG2 482-G2 mutant (unknown oirigin) expressed in HEK293 cells-mediated multidrug resistance assessed as potentiation of mitoxantrone-induced cytotoxicity at 10 to 25 uM pretreated for 2 hrs followed by mitoxantrone addition and measured after 44 hrs by MTT assay; type: cell-based; conditions: Homo sapiens
[25] = target: T1, Broad substrate specificity ATP-binding cassette transporter ABCG2; test: Competitive substrate activity at ABCG2 (unknown origin) expressed in High Five insect cell vesicle membrane assessed as stimulation of ATPase activity up to 40 uM by PREDEASY ATPase assay relative to control
NCI-H460 [26] = test: Cytotoxicity against human NCI-H460 cells assessed as inhibition of cell viability incubated for 2 hrs by MTT assay; type: cell-based; conditions: NCI-H460, 2 h, read-out: IC50
[27] = Cytotoxicity against human S1 cells assessed as inhibition of cell viability at 5 to 25 uM incubated for 2 hrs by MTT assay relative to control; type: cell-based; conditions: read-out: INH
[28] = target: T1, Broad substrate specificity ATP-binding cassette transporter ABCG2; test: Reversal of ABCG2-mediated multidrug resistance in human NCI-H460/MX20 cells assessed as potentiation of mitoxantrone-induced cytotoxicity by measuring inhibition of cell proliferation at 25 uM pretreated for 2 hrs followed by mitoxantrone addition and measured after 44 hrs by MTT assay (reference value: 24 +/- 3%); type: cell-based

Structure (SMILES): COc1ccc(C(=O)c2ccc3[nH]cc(C(=O)c4ccc(OC)cc4)c3c2OC)cc1
- cytotoxicity at 2 h, up to 25 µM [1]: < 20%
- cytotoxicity at up to 25 µM [2]: < 20%
- Activity [3]: Active
- cytotoxicity at 2 h, up to 25 µM [4]: < 20%
- fold change (FC) [5]: 3
- Activity [6]: Dose-dependent effect
- Activity (Homo sapiens [7]): inactive
- Activity [8]: 25 µM
- Activity (HEK293 [9]): Active
- IC50 [10]: > 100 µM
- Activity (Homo sapiens [11]): inactive
- Emax at 0.21 µM (ABCG2): 50%
- Activity (NCI-H460 [12]): 25 µM
- Activity [13]: Not Active
- Activity [14]: Active
- cytotoxicity at 2 h, up to 25 µM [15]: < 20%
- Activity [16]: Active
- cytotoxicity at 2 h, up to 25 µM [17]: < 20%
- Activity [18]: Active
- Activity [19]: Active
- remaining at 1 h, 100 µM [20]: 56%
- cytotoxicity at 2 h, up to 25 µM [21]: < 20%
- cytotoxicity at 2 h, up to 25 µM [22]: < 20%
- inhibition (INH) [23]: Dose-dependent effect
- Activity (HEK293 [24]): Active
- fold change (FC) [25]: 3.01
- IC50 (NCI-H460 [26]): > 100 µM
- cytotoxicity at 2 h, up to 25 µM [27]: < 20%
- inhibition at 25 µM [28]: > 87%
